Measured values reported in patent publication US5236931A, “2-substituted benzamide and benzoate derivatives of 3-aminoquinuclidine and 3-quinuclidinol” (priority 1992, dated 1993).

Tests used:
[1] = system: gastric emptying of a test meal; experiment: Effect on Gastric Emptying of a Test Meal in Rats; format: in vivo; details: rat
[2] = reported by Mikhlina et al; cited from earlier work

Structure (SMILES): Cc1nc(COc2cc(N)c(Cl)cc2C(=O)N[C@@H]2CN3CCC2CC3)cs1 [Example I (S)-isomer, S-(-)-4-Amino-N-(1-azabicyclo[2,2,2]oct-3-yl)-5-chloro-2-[(2-methyl-4-thiazolyl)methoxy]benzamide]
- Gastric emptying: % change in meal emptied ([1]; 9.0 mg/kg IP): 43%

Structure (SMILES): Cc1nc(COc2cc(N)c(Cl)cc2C(=O)N[C@H]2CN3CCC2CC3)cs1 [Example I (R)-isomer, (R)-(+)-4-Amino-N-(1-azabicyclo[2,2,2]oct-3-yl)-5-chloro-2-[(2-methyl-4-thiazolyl)methoxy]benzamide]
- Gastric emptying: % change in meal emptied ([1]; 9.0 mg/kg IP): 34%

Structure (SMILES): Nc1ccc(C(=O)NC2CN3CCC2CC3)cc1 (centres unmarked) [4-amino-N-(1-azabicyclo[2.2.2]oct-3-yl)-benzamide]
- reported activities [2]: hypotensive, narcotic and ganglionic stimulation and blocking activities

Structure (SMILES): O=C(NC1CN2CCC1CC2)c1ccccc1 (centres unmarked) [N-(1-azabicyclo[2.2.2]oct-3-yl)benzamide]
- reported activities [2]: hypotensive, narcotic and ganglionic stimulation and blocking activities

Structure (SMILES): Nc1cc(OCc2cccc(I)c2)c(C(=O)NC2CN3CCC2CC3)cc1Cl (centres unmarked) [Example VII, 4-Amino-N-(1-azabicyclo[2.2.2]oct-3-yl)-5-chloro-2-[(3-iodophenyl)methoxy]benzamide]
- Gastric emptying: % change in meal emptied ([1]; 0.10 mg/kg IP): 28%

Structure (SMILES): Nc1cc(OCc2ccccc2)c(C(=O)NC2CN3CCC2CC3)cc1Cl (centres unmarked) [Example V, 4-Amino-N-(1-azabicyclo[2.2.2]oct-3-yl)-5-chloro-2-(phenylmethoxy)benzamide]
- Gastric emptying: % change in meal emptied ([1]; 1.0 mg/kg IP): 61%

Structure (SMILES): Cc1nc(COc2cc(N)c(Cl)cc2C(=O)NC2CN3CCC2CC3)cs1 (centres unmarked) [Example I, 4-Amino-N-(1-azabicyclo[2,2,2]oct-3-yl)-5-chloro-2-[(2-methylthiazol-4-yl)methoxy]benzamide]
- Gastric emptying: % change in meal emptied ([1]; 9.0 mg/kg IP): 36%

Structure (SMILES): Nc1cc(OCc2cccc(Cl)c2)c(C(=O)NC2CN3CCC2CC3)cc1Cl (centres unmarked) [Example VI, 4-Amino-N-(1-azabicyclo[2.2.2]oct-3-yl)-5-chloro-2-[(3-chlorophenyl)methoxy]benzamide]
- Gastric emptying: % change in meal emptied ([1]; 1.0 mg/kg IP): 52%
